According to ChEMBL document CHEMBL4507268 (2021):

Experiments:
Details in all cases: Compound concentration 1.0 uM
[1] = target: Mast/stem cell growth factor receptor Kit (Homo sapiens) (UniProt P10721)
[2] = target: T1, Ephrin type-A receptor 1 (Homo sapiens) (UniProt P21709)
T1 sequence (whole entry): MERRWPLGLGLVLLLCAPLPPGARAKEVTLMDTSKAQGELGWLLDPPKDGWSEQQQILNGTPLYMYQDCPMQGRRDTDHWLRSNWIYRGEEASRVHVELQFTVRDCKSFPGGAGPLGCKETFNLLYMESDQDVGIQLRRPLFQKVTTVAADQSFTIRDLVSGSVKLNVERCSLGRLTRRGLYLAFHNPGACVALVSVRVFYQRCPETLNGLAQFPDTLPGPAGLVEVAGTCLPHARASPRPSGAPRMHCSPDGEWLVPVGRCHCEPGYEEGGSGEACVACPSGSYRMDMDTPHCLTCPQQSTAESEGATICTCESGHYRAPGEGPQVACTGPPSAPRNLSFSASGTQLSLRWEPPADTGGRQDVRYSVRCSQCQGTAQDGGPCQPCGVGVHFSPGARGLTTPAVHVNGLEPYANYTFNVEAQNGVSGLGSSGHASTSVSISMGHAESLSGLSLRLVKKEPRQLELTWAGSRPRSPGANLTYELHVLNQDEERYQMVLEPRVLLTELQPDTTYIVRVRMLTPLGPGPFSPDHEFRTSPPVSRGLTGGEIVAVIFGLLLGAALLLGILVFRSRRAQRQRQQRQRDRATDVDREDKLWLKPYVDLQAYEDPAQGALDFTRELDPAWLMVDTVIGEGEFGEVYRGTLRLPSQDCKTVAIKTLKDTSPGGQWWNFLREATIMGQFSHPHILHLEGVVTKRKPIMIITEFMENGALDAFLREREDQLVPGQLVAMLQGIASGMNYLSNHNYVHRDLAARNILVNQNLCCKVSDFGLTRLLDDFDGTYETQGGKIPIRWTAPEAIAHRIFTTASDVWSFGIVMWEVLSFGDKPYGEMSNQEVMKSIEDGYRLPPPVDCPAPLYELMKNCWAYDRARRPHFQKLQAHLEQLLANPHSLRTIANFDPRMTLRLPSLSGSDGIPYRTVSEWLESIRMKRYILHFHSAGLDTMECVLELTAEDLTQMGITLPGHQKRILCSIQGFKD

[3] = target: Fibroblast growth factor receptor 2 (Homo sapiens) (UniProt P21802)
Chain of Fibroblast growth factor receptor 2 (Homo sapiens) (P21802 22-821 limits assumed): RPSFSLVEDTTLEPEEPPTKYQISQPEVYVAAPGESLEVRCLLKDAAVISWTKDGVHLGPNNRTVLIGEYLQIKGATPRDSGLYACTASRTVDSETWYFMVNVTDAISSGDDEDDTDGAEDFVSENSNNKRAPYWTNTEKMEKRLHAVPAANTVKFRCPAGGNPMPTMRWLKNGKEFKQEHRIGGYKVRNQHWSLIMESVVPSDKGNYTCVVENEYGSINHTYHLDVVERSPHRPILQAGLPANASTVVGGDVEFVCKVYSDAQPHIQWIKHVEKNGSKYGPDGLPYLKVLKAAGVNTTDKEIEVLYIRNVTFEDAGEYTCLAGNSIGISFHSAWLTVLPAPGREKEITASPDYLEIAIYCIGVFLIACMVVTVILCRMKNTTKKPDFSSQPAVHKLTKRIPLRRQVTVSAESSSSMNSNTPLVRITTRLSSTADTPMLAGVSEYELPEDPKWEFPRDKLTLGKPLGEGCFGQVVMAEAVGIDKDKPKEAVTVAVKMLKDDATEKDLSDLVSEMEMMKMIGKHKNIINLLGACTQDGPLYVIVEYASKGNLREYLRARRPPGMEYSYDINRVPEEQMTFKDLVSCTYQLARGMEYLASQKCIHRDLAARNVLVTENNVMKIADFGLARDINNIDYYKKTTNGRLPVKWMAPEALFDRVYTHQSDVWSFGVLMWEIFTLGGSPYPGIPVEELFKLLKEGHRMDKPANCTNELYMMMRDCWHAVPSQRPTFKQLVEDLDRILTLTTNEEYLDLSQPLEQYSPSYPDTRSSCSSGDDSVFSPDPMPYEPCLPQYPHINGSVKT

[4] = target: Mitogen-activated protein kinase kinase kinase kinase 4 (Homo sapiens) (UniProt O95819)
Chain of Mitogen-activated protein kinase kinase kinase kinase 4 (Homo sapiens) (O95819 2-1239 limits assumed): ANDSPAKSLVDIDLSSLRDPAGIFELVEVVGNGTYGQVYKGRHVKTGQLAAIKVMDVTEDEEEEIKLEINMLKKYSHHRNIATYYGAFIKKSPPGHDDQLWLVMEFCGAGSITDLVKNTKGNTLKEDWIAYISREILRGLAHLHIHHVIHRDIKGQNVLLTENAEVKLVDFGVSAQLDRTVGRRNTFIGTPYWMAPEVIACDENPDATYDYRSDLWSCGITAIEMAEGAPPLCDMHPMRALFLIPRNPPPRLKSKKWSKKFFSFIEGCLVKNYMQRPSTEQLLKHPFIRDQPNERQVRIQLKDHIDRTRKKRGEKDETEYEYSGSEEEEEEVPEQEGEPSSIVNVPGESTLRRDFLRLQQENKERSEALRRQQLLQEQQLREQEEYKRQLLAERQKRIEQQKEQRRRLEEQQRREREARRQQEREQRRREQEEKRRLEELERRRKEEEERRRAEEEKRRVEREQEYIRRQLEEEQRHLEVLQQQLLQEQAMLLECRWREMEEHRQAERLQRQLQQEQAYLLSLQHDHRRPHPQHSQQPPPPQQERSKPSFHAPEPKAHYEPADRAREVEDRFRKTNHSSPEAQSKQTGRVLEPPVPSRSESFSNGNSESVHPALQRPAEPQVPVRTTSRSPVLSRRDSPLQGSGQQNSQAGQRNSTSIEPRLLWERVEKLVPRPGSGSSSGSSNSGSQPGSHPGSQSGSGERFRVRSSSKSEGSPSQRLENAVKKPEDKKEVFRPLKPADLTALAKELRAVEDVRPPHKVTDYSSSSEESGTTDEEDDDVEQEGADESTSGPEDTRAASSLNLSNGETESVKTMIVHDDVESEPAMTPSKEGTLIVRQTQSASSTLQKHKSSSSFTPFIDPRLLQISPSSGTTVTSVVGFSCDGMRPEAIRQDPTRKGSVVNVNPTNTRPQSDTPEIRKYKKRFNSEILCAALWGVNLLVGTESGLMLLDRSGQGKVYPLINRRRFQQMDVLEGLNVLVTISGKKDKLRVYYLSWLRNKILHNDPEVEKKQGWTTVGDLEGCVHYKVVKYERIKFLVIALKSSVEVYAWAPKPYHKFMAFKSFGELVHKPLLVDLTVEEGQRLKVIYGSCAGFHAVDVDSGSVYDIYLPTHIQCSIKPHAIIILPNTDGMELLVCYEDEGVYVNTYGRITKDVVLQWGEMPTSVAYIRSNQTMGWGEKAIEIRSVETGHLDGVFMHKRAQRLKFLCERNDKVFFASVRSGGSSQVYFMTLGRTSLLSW

[5] = target: T2, Mitogen-activated protein kinase kinase kinase 2 (Homo sapiens) (UniProt Q9Y2U5)
T2 sequence (whole entry): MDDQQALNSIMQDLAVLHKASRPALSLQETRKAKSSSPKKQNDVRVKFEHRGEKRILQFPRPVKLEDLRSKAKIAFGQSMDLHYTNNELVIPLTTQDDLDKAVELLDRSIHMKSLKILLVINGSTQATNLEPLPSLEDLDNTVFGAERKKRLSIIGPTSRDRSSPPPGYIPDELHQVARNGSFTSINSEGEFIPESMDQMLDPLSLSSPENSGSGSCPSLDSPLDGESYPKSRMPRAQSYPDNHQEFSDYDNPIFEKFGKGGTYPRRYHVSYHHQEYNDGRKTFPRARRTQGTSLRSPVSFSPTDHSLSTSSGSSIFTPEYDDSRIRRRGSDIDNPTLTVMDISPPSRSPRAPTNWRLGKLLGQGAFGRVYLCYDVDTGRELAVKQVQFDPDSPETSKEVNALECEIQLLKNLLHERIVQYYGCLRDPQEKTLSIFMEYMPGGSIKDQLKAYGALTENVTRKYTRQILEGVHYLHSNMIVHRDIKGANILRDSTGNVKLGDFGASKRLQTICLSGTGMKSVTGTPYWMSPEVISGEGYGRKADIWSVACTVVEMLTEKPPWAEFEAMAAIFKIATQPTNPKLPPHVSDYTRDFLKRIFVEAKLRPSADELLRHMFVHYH

[6] = target: T3, Dual specificity mitogen-activated protein kinase kinase 7 (Homo sapiens) (UniProt O14733)
T3 sequence (whole entry): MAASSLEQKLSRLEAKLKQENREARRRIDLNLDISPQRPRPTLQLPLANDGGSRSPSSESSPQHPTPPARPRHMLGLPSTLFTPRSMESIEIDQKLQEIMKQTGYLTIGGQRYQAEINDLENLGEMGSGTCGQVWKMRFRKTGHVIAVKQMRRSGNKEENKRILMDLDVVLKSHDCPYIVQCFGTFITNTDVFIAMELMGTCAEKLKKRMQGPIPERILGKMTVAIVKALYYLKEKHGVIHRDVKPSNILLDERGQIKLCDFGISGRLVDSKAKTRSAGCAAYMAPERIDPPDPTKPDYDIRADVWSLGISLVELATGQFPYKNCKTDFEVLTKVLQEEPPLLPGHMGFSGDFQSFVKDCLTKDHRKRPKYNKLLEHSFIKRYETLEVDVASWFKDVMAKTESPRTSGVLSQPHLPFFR

[7] = target: Serine/threonine-protein kinase MRCK beta (Homo sapiens) (UniProt Q9Y5S2)
Chain of Serine/threonine-protein kinase MRCK beta (Homo sapiens) (Q9Y5S2 whole entry): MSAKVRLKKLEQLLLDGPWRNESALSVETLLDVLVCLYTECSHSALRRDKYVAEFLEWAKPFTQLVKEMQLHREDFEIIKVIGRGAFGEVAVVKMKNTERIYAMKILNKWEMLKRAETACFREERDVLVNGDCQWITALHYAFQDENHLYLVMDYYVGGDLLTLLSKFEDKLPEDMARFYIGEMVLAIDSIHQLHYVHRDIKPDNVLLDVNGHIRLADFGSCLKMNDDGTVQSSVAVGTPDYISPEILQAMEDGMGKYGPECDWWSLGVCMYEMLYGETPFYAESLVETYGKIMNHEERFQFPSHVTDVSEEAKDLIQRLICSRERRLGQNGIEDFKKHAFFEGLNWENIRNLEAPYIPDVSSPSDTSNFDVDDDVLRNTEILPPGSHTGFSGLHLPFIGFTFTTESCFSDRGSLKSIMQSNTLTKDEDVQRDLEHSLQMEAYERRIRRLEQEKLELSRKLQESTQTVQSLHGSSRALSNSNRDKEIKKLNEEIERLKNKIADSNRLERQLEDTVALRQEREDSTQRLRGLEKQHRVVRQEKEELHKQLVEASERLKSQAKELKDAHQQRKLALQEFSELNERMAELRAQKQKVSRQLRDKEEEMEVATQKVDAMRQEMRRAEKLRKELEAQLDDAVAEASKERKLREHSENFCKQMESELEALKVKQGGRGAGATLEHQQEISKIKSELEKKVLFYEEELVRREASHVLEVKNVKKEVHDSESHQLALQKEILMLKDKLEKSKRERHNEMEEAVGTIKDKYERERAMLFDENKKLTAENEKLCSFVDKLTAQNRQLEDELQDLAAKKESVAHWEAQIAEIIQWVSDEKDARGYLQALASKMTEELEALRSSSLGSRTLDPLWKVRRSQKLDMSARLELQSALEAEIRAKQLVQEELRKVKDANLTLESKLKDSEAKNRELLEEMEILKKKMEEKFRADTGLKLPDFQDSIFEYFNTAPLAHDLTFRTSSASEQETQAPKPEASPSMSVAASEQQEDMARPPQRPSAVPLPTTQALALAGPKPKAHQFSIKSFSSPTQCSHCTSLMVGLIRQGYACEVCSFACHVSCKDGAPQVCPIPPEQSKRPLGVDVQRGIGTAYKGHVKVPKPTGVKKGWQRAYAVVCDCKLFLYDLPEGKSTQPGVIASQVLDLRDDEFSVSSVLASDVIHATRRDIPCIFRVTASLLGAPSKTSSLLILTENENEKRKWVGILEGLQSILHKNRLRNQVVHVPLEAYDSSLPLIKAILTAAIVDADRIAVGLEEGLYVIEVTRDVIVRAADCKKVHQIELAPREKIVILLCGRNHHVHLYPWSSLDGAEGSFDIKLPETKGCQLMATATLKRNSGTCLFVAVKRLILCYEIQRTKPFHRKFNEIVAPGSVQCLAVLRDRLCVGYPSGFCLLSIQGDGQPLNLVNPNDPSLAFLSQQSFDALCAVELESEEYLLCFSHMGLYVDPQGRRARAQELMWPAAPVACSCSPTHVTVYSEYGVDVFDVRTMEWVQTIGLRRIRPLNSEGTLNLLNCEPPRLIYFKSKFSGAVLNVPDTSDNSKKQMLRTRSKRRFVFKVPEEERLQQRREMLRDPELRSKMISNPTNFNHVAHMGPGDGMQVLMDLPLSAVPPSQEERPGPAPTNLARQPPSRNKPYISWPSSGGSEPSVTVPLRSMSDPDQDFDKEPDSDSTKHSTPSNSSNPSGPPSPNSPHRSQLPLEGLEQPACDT

[8] = target: Serine/threonine-protein kinase Nek7 (Homo sapiens) (UniProt Q8TDX7)
Chain of Serine/threonine-protein kinase Nek7 (Homo sapiens) (Q8TDX7 whole entry, looked up): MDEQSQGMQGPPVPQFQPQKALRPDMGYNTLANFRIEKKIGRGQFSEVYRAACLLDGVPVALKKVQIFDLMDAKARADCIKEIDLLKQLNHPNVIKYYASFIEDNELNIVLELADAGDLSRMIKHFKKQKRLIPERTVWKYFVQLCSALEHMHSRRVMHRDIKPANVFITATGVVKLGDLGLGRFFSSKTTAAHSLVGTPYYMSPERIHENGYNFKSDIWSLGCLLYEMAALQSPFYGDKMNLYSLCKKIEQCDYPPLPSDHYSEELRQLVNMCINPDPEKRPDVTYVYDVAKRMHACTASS

[9] = target: Serine/threonine-protein kinase SIK3 (Homo sapiens) (UniProt Q9Y2K2)
[10] = target: T4, Tyrosine-protein kinase TXK (Homo sapiens) (UniProt P42681)
T4 sequence (whole entry): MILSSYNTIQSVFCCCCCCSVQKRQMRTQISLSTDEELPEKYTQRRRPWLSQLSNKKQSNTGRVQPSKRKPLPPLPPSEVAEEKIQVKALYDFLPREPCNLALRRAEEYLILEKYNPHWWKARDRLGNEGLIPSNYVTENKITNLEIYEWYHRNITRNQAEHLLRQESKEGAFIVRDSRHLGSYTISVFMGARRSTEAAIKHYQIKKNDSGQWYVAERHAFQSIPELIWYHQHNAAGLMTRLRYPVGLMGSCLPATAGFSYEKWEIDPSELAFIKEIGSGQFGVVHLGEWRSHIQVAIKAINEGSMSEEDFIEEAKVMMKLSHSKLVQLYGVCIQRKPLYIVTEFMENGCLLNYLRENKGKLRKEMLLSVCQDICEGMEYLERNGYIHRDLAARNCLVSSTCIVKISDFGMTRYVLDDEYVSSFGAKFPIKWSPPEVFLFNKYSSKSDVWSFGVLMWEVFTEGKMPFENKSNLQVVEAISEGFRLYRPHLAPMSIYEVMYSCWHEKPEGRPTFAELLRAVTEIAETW

[11] = target: Phosphatidylinositol 5-phosphate 4-kinase type-2 alpha (Homo sapiens) (UniProt P48426)
Chain of Phosphatidylinositol 5-phosphate 4-kinase type-2 alpha (Homo sapiens) (P48426 whole entry): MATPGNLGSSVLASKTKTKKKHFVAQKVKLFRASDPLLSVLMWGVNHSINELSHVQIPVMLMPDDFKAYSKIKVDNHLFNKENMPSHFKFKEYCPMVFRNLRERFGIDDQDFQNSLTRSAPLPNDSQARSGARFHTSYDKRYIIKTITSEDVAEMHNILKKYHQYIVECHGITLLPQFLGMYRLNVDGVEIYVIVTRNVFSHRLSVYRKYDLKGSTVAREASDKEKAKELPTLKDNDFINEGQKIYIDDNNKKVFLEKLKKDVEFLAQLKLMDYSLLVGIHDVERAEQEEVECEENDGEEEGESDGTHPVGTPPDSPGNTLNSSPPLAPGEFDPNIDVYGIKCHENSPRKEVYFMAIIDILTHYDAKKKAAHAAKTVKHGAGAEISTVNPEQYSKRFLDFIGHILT

Measured: % residual kinase activity

CN1CCN(c2cnc3c(C4CCN(C(=O)c5ccc(OC(F)(F)F)cc5N)CC4)ncnc3c2)CC1 [BAY-885]
inactive: [1] 104% | [2] 106% | [3] 107% | [4] 99% | [5] 116% | [6] 106% | [7] 110% | [8] 106% | [9] 96% | [10] 99% | [11] 95%
